Assays:
[1] = molecular target: MOR (Mus musculus, UniProt P42866); assay: MOR [35S]GTPγS functional assay, MOR-CHO membranes; assay type: biochemical; conditions: for Emax: read-out: MOR [35S]GTPγS Emax, relative to maximal stimulation produced by DAMGO; for MOR [35S]GTPγS Emax: relative to maximal stimulation produced by DAMGO
[2] = molecular target: KOR (Homo sapiens, UniProt P41145); assay type: binding
[3] = test system: MOR; assay type: binding; conditions: for Selectivity D/M: ratio Ki DOR / Ki MOR; for Selectivity K/M: ratio Ki KOR / Ki MOR
[4] = molecular target: DOR (Homo sapiens, UniProt P41143); assay type: binding
[5] = test system: Swiss Webster mice; assay: Warm-water tail immersion assay, antagonism of morphine antinociception; conditions: single dose 10 mg kg^−1 s.c. in the presence of morphine 10 mg kg^−1 s.c.
[6] = test system: Swiss Webster mice; assay: Warm-water tail immersion assay, agonism; conditions: single dose 10 mg kg^−1 s.c., 20 min after injection

Row | SMILES | EC50 [1] [nM] | Emax [1] [%] | Ki [2] [nM] | Selectivity D/M [3] | Selectivity K/M [3] | Ki [4] [nM] | ability to reverse the antinociceptive effects of morphine [5] | %MPE (antinociception) [6] [%] | MOR [35S]GTPγS Emax [1] [%]
1 | O=C(N[C@@H]1CC[C@@]2(O)[C@H]3Cc4ccc(O)c5c4[C@@]2(CCN3CC2CC2)[C@H]1O5)c1cccc2c(-c3ccccc3)coc12 [Compound 11, N-((4R,4aS,7R,7aR,12bS)-3-(Cyclopropylmethyl)-4a,9-dihydroxy-2,3,4,4a,5,6,7,7a-octahydro-1H-4,12-methanobenzofuro[3,2-e]isoquinolin-7-yl)-3-phenylbenzofuran-7-carboxamide] | 0.56 ± 0.07 | ~10 | 19.7 ± 2.2 | 123 | 110 | 22.1 ± 3.2 | considerable antagonism activity | – | –
2 | O=C(N[C@H]1CC[C@@]2(O)[C@H]3Cc4ccc(O)c5c4[C@@]2(CCN3CC2CC2)[C@H]1O5)c1cccc2c(-c3ccncc3)coc12 [Compound 6, N-((4R,4aS,7S,7aR,12bS)-3-(Cyclopropylmethyl)-4a,9-dihydroxy-2,3,4,4a,5,6,7,7a-octahydro-1H-4,12-methanobenzofuro[3,2-e]isoquinolin-7-yl)-3-(pyridin-4-yl)benzofuran-7-carboxamide] | 12 ± 2.1 | 14.8 ± 1.6 | 8.7 ± 1.5 | 41 | 3.7 | 97.7 ± 16.3 | – | – | –
3 | Cc1coc2c(C(=O)N[C@@H]3CC[C@@]4(O)[C@H]5Cc6ccc(O)c7c6[C@@]4(CCN5CC4CC4)[C@H]3O7)cccc12 [Compound 10, N-((4R,4aS,7R,7aR,12bS)-3-(Cyclopropylmethyl)-4a,9-dihydroxy-2,3,4,4a,5,6,7,7a-octahydro-1H-4,12-methanobenzofuro[3,2-e]isoquinolin-7-yl)-3-methylbenzofuran-7-carboxamide] | 0.81 ± 0.14 | 32.7 ± 3.3 | 0.44 ± 0.08 | 57 | 1.9 | 13.1 ± 1.1 | – | 54.2 | –
4 | Cc1coc2c(C(=O)N[C@H]3CC[C@@]4(O)[C@H]5Cc6ccc(O)c7c6[C@@]4(CCN5CC4CC4)[C@H]3O7)cccc12 [Compound 4, N-((4R,4aS,7S,7aR,12bS)-3-(Cyclopropylmethyl)-4a,9-dihydroxy-2,3,4,4a,5,6,7,7a-octahydro-1H-4,12-methanobenzofuro[3,2-e]isoquinolin-7-yl)-3-methylbenzofuran-7-carboxamide] | 4.52 ± 0.39 | 23.5 ± 1.6 | 15.7 ± 1.3 | 130 | 23 | 87 ± 5.3 | – | – | –
5 | O=C(N[C@@H]1CC[C@@]2(O)[C@H]3Cc4ccc(O)c5c4[C@@]2(CCN3CC2CC2)[C@H]1O5)c1cccc2c(-c3ccncc3)coc12 [Compound 12, N-((4R,4aS,7R,7aR,12bS)-3-(Cyclopropylmethyl)-4a,9-dihydroxy-2,3,4,4a,5,6,7,7a-octahydro-1H-4,12-methanobenzofuro[3,2-e]isoquinolin-7-yl)-3-(pyridin-4-yl)benzofuran-7-carboxamide] | 1.2 ± 0.38 | ~10 | 7.34 ± 0.95 | 213 | 35 | 45 ± 9.3 | considerable antagonism activity | – | –
6 | Cl.O=C(N[C@H]1CC[C@@]2(O)[C@H]3Cc4ccc(O)c5c4[C@@]2(CCN3CC2CC2)[C@H]1O5)c1cccc2c(Br)coc12 [Compound 2, 3-Bromo-N-((4R,4aS,7S,7aR,12bS)-3-(cyclopropylmethyl)-4a,9-dihydroxy-2,3,4,4a,5,6,7,7a-octahydro-1H-4,12-methanobenzofuro[3,2-e]isoquinolin-7-yl)benzofuran-7-carboxamide hydrochloride] | 7.37 ± 2.32 | – | 17.3 ± 1.2 | 154 | 30 | 87.8 ± 5.5 | – | – | 16.0 ± 4.0
7 | O=C(N[C@@H]1CC[C@@]2(O)[C@H]3Cc4ccc(O)c5c4[C@@]2(CCN3CC2CC2)[C@H]1O5)c1cccc2c(Cl)coc12 [Compound 9, 3-Chloro-N-((4R,4aS,7R,7aR,12bS)-3-(cyclopropylmethyl)-4a,9-dihydroxy-2,3,4,4a,5,6,7,7a-octahydro-1H-4,12-methanobenzofuro[3,2-e]isoquinolin-7-yl)benzofuran-7-carboxamide] | 0.35 ± 0.07 | 51.2 ± 3.4 | 0.16 ± 0.02 | 37 | 1.1 | 5.17 ± 1.13 | – | 84.5 | –
8 | O=C(N[C@H]1CC[C@@]2(O)[C@H]3Cc4ccc(O)c5c4[C@@]2(CCN3CC2CC2)[C@H]1O5)c1cccc2c(Cl)coc12 [Compound 3, 3-Chloro-N-((4R,4aS,7S,7aR,12bS)-3-(cyclopropylmethyl)-4a,9-dihydroxy-2,3,4,4a,5,6,7,7a-octahydro-1H-4,12-methanobenzofuro[3,2-e]isoquinolin-7-yl)benzofuran-7-carboxamide] | 2.65 ± 0.47 | 21.6 ± 0.8 | 17.1 ± 1.3 | 277 | 34 | 138 ± 24 | – | – | –
9 | O=C(N[C@H]1CC[C@@]2(O)[C@H]3Cc4ccc(O)c5c4[C@@]2(CCN3CC2CC2)[C@H]1O5)c1cccc2c(-c3ccccc3)coc12 [Compound 5, N-((4R,4aS,7S,7aR,12bS)-3-(Cyclopropylmethyl)-4a,9-dihydroxy-2,3,4,4a,5,6,7,7a-octahydro-1H-4,12-methanobenzofuro[3,2-e]isoquinolin-7-yl)-3-phenylbenzofuran-7-carboxamide] | 27.4 ± 5 | 17.3 ± 1 | 33.8 ± 5.6 | 173 | 24 | 238 ± 28 | – | – | –
10 | Cl.O=C(N[C@@H]1CC[C@@]2(O)[C@H]3Cc4ccc(O)c5c4[C@@]2(CCN3CC2CC2)[C@H]1O5)c1cccc2c(Br)coc12 [Compound 8, 3-Bromo-N-((4R,4aS,7R,7aR,12bS)-3-(cyclopropylmethyl)-4a,9-dihydroxy-2,3,4,4a,5,6,7,7a-octahydro-1H-4,12-methanobenzofuro[3,2-e]isoquinolin-7-yl)benzofuran-7-carboxamide hydrochloride] | 0.49 ± 0.08 | – | 0.21 ± 0.01 | 27 | 1.0 | 5.34 ± 0.99 | – | 90.9 | 42.9 ± 3.9
